Laboratory results: patent publication US20210024542A1 (Torcept Therapeutics, Inc., priority 2018, published 2021)
Like-named read-outs stand apart in the source and are kept apart here.

Tests used:
A388 = test: OncoPanel cell proliferation assay, A388; assay type: cell-based, human; details: for Relative cell count (%) Mean: A388
Description: (§1) Cells were seeded into 384-well plates and incubated in a humidified atmosphere of 5% CO2 at 37° C. Compounds were added the day following cell seeding. At the same time, a time zero untreated cell plate was generated. After a 3-day incubation period, cells were fixed and stained to allow fluorescence imaging of nuclei. Compounds (1 mM stock solutions) were serially diluted in half-log steps from the highest test concentration ([…]), and assayed over 10 concentrations with a maximum assay concentration of 0.1% DMSO. Automated fluorescence microscopy was carried out using a Molecular Devices ImageXpress Micro XL high-content imager, and images were collected with a 4× objective. 16-bit TIFF images were acquired and analyzed with MetaXpress 5.1.0.41 software.
(§2) Cell proliferation was measured by the fluorescence intensity of an incorporated nuclear dye. The output is referred to as the relative cell count, where the measured nuclear intensity is transformed to percent of control (POC) using the following formula: […]
(§3) Cellular response parameters were calculated using nonlinear regression to a sigmoidal single-site dose response model:
(§4) Where y is a response measured at concentration x, A and B are the lower and upper limits of the response, C is the concentration at the response midpoint (EC50), and D is the Hill Slope (Ref. 1).
GI50 is the concentration needed to reduce the observed growth by half (midway between the curve maximum and the time zero value). […] In rare instances, values <0 or >10 may be observed. […] Curve-fitting, calculations, and report generation was performed using a custom data reduction engine and MathIQ based software (AIM).

RL95-2 = test: OncoPanel cell proliferation assay, RL95-2; assay type: cell-based, human; details: for Relative cell count (%) Mean: RL95-2
Description: as §1, with “Cells were grown in RPMI 1640, 10% FBS, 2 mM L-alanyl-L-glutamine, 1 mM Na pyruvate, or a special medium. Cells” for “Cells”
as §2, §3, §4
(§5) EC50 is the test compound concentration at the curve inflection point or half the effective response (parameter C of the fitted curve solution). GI50 is the concentration needed to reduce the observed growth by half (midway between the curve maximum and the time zero value). “Cell Count Activity Area” is an estimate of the integrated area above the curve (Barretina, et al. The Cancer Cell Line Encyclopedia enables predictive modelling of anticancer drug sensitivity. Nature 483: 603-607). […] In rare instances, values <0 or >10 may be observed. […] Curve-fitting, calculations, and report generation was performed using a custom data reduction engine and MathIQ based software (AIM).

SK-MEL-28 = test: OncoPanel cell proliferation assay, SK-MEL-28; assay type: cell-based, human; details: for Relative cell count (%) Mean: SK-MEL-28
Description: as §1, with “Cells were grown in RPMI 1640, 10% FBS, 2 mM L-alanyl-L-glutamine, 1 mM Na pyruvate, or a special medium. Cells” for “Cells”
as §2, §3, §4, §5

786-O = test: OncoPanel cell proliferation assay, 786-O; assay type: cell-based, human; details: for Relative cell count (%) Mean: 786-0
Description: as §1, with “Cells were grown in RPMI 1640, 10% FBS, 2 mM L-alanyl-L-glutamine, 1 mM Na pyruvate, or a special medium. Cells” for “Cells”
as §2, §3, §4, §5

SHP-77 = test: OncoPanel cell proliferation assay, SHP-77; details: for Relative cell count (%) Mean: SHP-77
Description: (§6) Cells were seeded into 384-well plates and incubated in a humidified atmosphere of 5% CO2 at 37° C. Compounds were added the day following cell seeding. At the same time, a time zero untreated cell plate was generated. After a 3-day incubation period, cells were fixed and stained to allow fluorescence imaging of nuclei. Compounds (1 mM stock solutions) were serially diluted in half-log steps from the highest test concentration (1 micromol), and assayed over 10 concentrations with a maximum assay concentration of 0.1% DMSO. Automated fluorescence microscopy was carried out using a Molecular Devices ImageXpress Micro XL high-content imager, and images were collected with a 4× objective. 16-bit TIFF images were acquired and analyzed with MetaXpress 5.1.0.41 software.

PC-3 = test: OncoPanel cell proliferation assay, PC-3; details: for Relative cell count (%) Mean: PC-3
Description: as §6

CO[C@H]1C[C@@H]2CC[C@@H](C)[C@@](O)(O2)C(=O)C(=O)N2CCCC[C@H]2C(=O)O[C@H]([C@H](C)C[C@@H]2C[C@@H]3C[C@H]2C[C@H]3O)CC(=O)[C@H](C)/C=C(\C)[C@@H](O)[C@@H](OC)C(=O)[C@H](C)C[C@H](C)/C=C/C=C/C=C/1C [Formula I, 37R-hydroxynorbornylrapamycin]
Cell Count Activity Area (A388; A388, scale 0-10): 3.22 | Relative cell count (%) Mean (A388; 1.00E+00 microM): 53.8% | Relative cell count (%) Mean (A388; 1.00E−01 microM): 62.3% | Relative cell count (%) Mean (A388; 1.00E−02 microM): 63.3% | Relative cell count (%) Mean (A388; 1.00E−03 microM): 69.1% | Relative cell count (%) Mean (A388; 1.01E−04 microM): 77.9% | Relative cell count (%) Mean (A388; 3.16E−01 microM): 59.0% | Relative cell count (%) Mean (A388; 3.17E−02 microM): 59.6% | Relative cell count (%) Mean (A388; 3.17E−03 microM): 67.1% | Relative cell count (%) Mean (A388; 3.18E−04 microM): 76.3% | Relative cell count (%) Mean (A388; 3.18E−05 microM): 89.9% | EC50 (A388; Homo sapiens, 72 h, A388, 3-day incubation, read-out: Cell Count EC50): 0.19 nM | GI50 (A388; Homo sapiens, 72 h, A388, 3-day incubation, read-out: Cell Count GI50): 50.7 nM | IC50 (A388; Homo sapiens, 72 h, A388, 3-day incubation, read-out: Cell Count IC50): > 1000 nM | EC50 (RL95-2; Homo sapiens, 72 h, RL95-2, 3-day incubation, read-out: Cell Count EC50): 0.15 nM | GI50 (RL95-2; Homo sapiens, 72 h, RL95-2, 3-day incubation, read-out: Cell Count GI50): 0.22 nM | IC50 (RL95-2; Homo sapiens, 72 h, RL95-2, 3-day incubation, read-out: Cell Count IC50): 10.9 nM | Cell Count Activity Area (RL95-2; RL95-2, scale 0-10): 4.12 | Relative cell count (%) Mean (RL95-2; 1.00E+00 microM): 47.2% | Relative cell count (%) Mean (RL95-2; 1.00E−01 microM): 50.6% | Relative cell count (%) Mean (RL95-2; 1.00E−02 microM): 52.2% | Relative cell count (%) Mean (RL95-2; 1.00E−03 microM): 59.5% | Relative cell count (%) Mean (RL95-2; 1.01E−04 microM): 78.3% | Relative cell count (%) Mean (RL95-2; 3.16E−01 microM): 45.6% | Relative cell count (%) Mean (RL95-2; 3.17E−02 microM): 48.5% | Relative cell count (%) Mean (RL95-2; 3.17E−03 microM): 52.9% | Relative cell count (%) Mean (RL95-2; 3.18E−04 microM): 64.0% | Relative cell count (%) Mean (RL95-2; 3.18E−05 microM): 89.3% | EC50 (SK-MEL-28; Homo sapiens, 72 h, SK-MEL-28, 3-day incubation, read-out: Cell Count EC50): 0.194 nM | GI50 (SK-MEL-28; Homo sapiens, 72 h, SK-MEL-28, 3-day incubation, read-out: Cell Count GI50): > 1000 nM | IC50 (SK-MEL-28; Homo sapiens, 72 h, SK-MEL-28, 3-day incubation, read-out: Cell Count IC50): > 1000 nM | EC50 (SK-MEL-28; Homo sapiens, Table 4 summary, SK-MEL-28, Melanoma, read-out: EC50): 0.19 nM | Cell Count Activity Area (SK-MEL-28; SK-MEL-28, scale 0-10): 1.87 | Relative cell count (%) Mean (SK-MEL-28; 1.00E−01 microM): 65.6% | Relative cell count (%) Mean (SK-MEL-28; 1.00E−02 microM): 71.4% | Relative cell count (%) Mean (SK-MEL-28; 1.00E−03 microM): 75.0% | Relative cell count (%) Mean (SK-MEL-28; 1.01E−04 microM): 88.2% | Relative cell count (%) Mean (SK-MEL-28; 3.17E−02 microM): 68.9% | Relative cell count (%) Mean (SK-MEL-28; 3.17E−03 microM): 70.8% | Relative cell count (%) Mean (SK-MEL-28; 3.18E−04 microM): 79.6% | Relative cell count (%) Mean (SK-MEL-28; 3.18E−05 microM): 93.8% | Relative cell count (%) Mean (786-O; 1.00E+00 microM): 37.4% | Relative cell count (%) Mean (786-O; 1.00E−01 microM): 44.8% | Relative cell count (%) Mean (786-O; 1.00E−02 microM): 52.1% | Relative cell count (%) Mean (786-O; 1.00E−03 microM): 61.1% | Relative cell count (%) Mean (786-O; 1.01E−04 microM): 88.5% | Relative cell count (%) Mean (786-O; 3.16E−01 microM): 43.9% | Relative cell count (%) Mean (786-O; 3.17E−02 microM): 46.5% | Relative cell count (%) Mean (786-O; 3.17E−03 microM): 60.0% | Relative cell count (%) Mean (786-O; 3.18E−04 microM): 77.4% | Relative cell count (%) Mean (786-O; 3.18E−05 microM): 100.6% | Cell Count Activity Area (786-O; 786-O, scale 0-10): 4.43 | EC50 (786-O; Homo sapiens, 786-0, 72 h, 786-O, 3-day incubation, read-out: Cell Count EC50): 0.395 nM | GI50 (786-O; Homo sapiens, 786-0, 72 h, 786-O, 3-day incubation, read-out: Cell Count GI50): 1.91 nM | IC50 (786-O; Homo sapiens, 786-0, 72 h, 786-O, 3-day incubation, read-out: Cell Count IC50): 4.07 nM | EC50 (SHP-77; Homo sapiens, SHP77, 72 h, read-out: Cell Count EC50): 309 nM | GI50 (SHP-77; Homo sapiens, SHP77, 72 h, read-out: Cell Count GI50): > 1000 nM | IC50 (SHP-77; Homo sapiens, SHP77, 72 h, read-out: Cell Count IC50): > 1000 nM | Cell Count Activity Area (SHP-77; SHP-77, scale 0-10): 1.18 | Relative cell count (%) Mean (SHP-77; 1.00E+00 microM): 71.6% | Relative cell count (%) Mean (SHP-77; 1.00E−01 microM): 83.4% | Relative cell count (%) Mean (SHP-77; 1.00E−02 microM): 94.0% | Relative cell count (%) Mean (SHP-77; 1.00E−03 microM): 96.5% | Relative cell count (%) Mean (SHP-77; 1.01E−04 microM): 98.0% | Relative cell count (%) Mean (SHP-77; 3.16E−01 microM): 75.9% | Relative cell count (%) Mean (SHP-77; 3.17E−02 microM): 84.9% | Relative cell count (%) Mean (SHP-77; 3.17E−03 microM): 89.5% | Relative cell count (%) Mean (SHP-77; 3.18E−04 microM): 101.7% | Relative cell count (%) Mean (SHP-77; 3.18E−05 microM): 99.1% | EC50 (PC-3; Homo sapiens, PC-3, 72 h, read-out: Cell Count EC50): 0.346 nM | GI50 (PC-3; Homo sapiens, PC-3, 72 h, read-out: Cell Count GI50): 1.89 nM | IC50 (PC-3; Homo sapiens, PC-3, 72 h, read-out: Cell Count IC50): 9.55 nM | Cell Count Activity Area (PC-3; PC-3, scale 0-10): 3.97 | Relative cell count (%) Mean (PC-3; 1.00E+00 microM): 42.2% | Relative cell count (%) Mean (PC-3; 1.00E−01 microM): 47.9% | Relative cell count (%) Mean (PC-3; 1.00E−02 microM): 53.6% | Relative cell count (%) Mean (PC-3; 1.00E−03 microM): 59.2% | Relative cell count (%) Mean (PC-3; 1.01E−04 microM): 87.3% | Relative cell count (%) Mean (PC-3; 3.16E−01 microM): 43.8% | Relative cell count (%) Mean (PC-3; 3.17E−02 microM): 47.1% | Relative cell count (%) Mean (PC-3; 3.17E−03 microM): 59.0% | Relative cell count (%) Mean (PC-3; 3.18E−04 microM): 69.1% | Relative cell count (%) Mean (PC-3; 3.18E−05 microM): 93.7%
